Data on three compounds can be found in paper PMC8453635, “Piperidine Azasugars Bearing Lipophilic Chains: Stereoselective Synthesis and Biological Activity as Inhibitors of Glucocerebrosidase (GCase)” (The Journal of Organic Chemistry, 2021).

This experiment deals with T1, β-galactosidase (Homo sapiens, UniProt P16278).
T1 construct: from leukocytes isolated from healthy donors (controls); from tissue; host or cells: leukocytes from healthy donors, sonicated homogenate
T1 sequence (P16278 29-677): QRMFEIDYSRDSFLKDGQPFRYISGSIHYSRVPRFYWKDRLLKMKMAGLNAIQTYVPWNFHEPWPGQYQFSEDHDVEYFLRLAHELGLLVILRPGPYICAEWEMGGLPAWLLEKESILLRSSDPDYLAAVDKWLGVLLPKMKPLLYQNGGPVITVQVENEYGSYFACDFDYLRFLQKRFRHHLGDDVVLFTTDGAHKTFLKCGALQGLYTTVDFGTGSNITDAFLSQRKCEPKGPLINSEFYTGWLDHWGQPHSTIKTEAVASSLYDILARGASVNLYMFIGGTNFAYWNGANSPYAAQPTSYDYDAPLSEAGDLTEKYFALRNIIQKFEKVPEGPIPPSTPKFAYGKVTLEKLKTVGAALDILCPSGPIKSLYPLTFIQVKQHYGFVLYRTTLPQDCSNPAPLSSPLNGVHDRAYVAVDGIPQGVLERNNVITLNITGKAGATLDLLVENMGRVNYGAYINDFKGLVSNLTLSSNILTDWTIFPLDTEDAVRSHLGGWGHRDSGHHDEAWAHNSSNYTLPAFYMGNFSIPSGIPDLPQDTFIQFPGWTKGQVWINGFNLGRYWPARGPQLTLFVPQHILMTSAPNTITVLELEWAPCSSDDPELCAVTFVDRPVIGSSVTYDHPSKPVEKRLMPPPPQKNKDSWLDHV
Put plainly: Human lysosomal glycosidase selectivity screening (leukocyte homogenate). The class given is biochemical. To be noted: 1 mM, read-out: percentage of inhibition, β-Gal. The method, then:
In order to avoid undesired inhibitory side effects of a potential new drug, it has to be selective for a given target. The selectivity of the newly synthesized compounds 14, 15, and 33·HCl toward GCase was then investigated, evaluating their inhibition at 1 mM concentration toward six other lysosomal glycosidases (namely, α-and β-mannosidases, α- and β-galactosidases, α-fucosidase, and α-glucosidase) in cell homogenates (leucocytes or lymphocytes) isolated from healthy donors. […] Indeed, only moderate inhibitory activity (ca. 50%) was found toward human β-galactosidase for both piperidines 14 and 15, while negligible inhibitory activity was detected in all other cases.
The effect of 1 mM concentration of 14, 15, and 33·HCl was assayed toward six lysosomal glycosidases other than GCase, namely, α-mannosidase, β-mannosidase, α-galactosidase, β-galactosidase, α-fucosidase from leukocytes isolated from healthy donors (controls) and α-glucosidase from lymphocytes isolated from healthy donors’ flesh blood (controls). […]
μL, Sigma –Aldrich) in acetate buffer (0.1M, pH 4.3) containing NaCl (0.1M) and sodium azide (0.02%) were incubated at 37 °C for 1 h. The reaction was stopped by addition o f sodium carbonate (200 μL; 0.5M, pH 10.7) containing Triton X -100 (0.0025 %), and the fluorescence 4 -methylumbelliferone released by β-galactosidase activity was measured in SpectraMax M2 microplate reader ( λex=365 nm, λem=435 nm; Molecular Devices). […]
α-Fucosidase activity was measured in a flat -bottomed 96 -well plate. […]
α-Glucosidase activity was measured in a flat –bottomed 96 well plate. […] The reaction was stopped by the addition of a solution of sodium carbonate (200 µL; 0.5M, pH 10.7) containing Triton X -100 (0.0025 %), and the fluorescence of 4 -methylumbelliferone released by α-glucosidase activity was measured in […]
Figure S 48. […] The corresponding calculated percentage of inhibition is indicated above each bar.
With `CCCCCCCC[C@@H]1[C@@H](O)[C@H](O)[C@H](O)CN1CCCCCCCC` [compound 15, (2R,3R,4R,5R)-1,2-Dioctylpiperidine-3,4,5-triol], the inhibition at 1000 µM stood at 51%.
For `CCCCCCCC[C@@H]1[C@@H](O)[C@H](O)[C@H](O)CN1C(CCCCCCC)CCCCCCC.Cl` [compound 33·HCl, (2R,3R,4R,5R)-2-Octyl-1-(pentadecan-8-yl)-piperidine-3,4,5-triol Hydrochloride], the inhibition at 1000 µM was 15%.
As for `CCCCCCCC[C@H]1[C@@H](O)[C@H](O)[C@H](O)CN1CCCCCCCC` [compound 14, (2S,3R,4R,5R)-1,2-Dioctylpiperidine-3,4,5-triol], the figure is 48%.

As a reminder, the inhibition is the percentage by which the read-out fell short of the control.
